Assay results as given in ChEMBL document CHEMBL1201862, “PubChem BioAssay data set” (2004).
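96-well plates; 48 h exposure; 5 concentrations. Endpoints by linear interpolation between flanking doses. Not reached: highest tested concentration assigned. GI50 marks 50% less growth.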 The source made the active and inactive calls. Cut-off read from the data, not from the text of the source: active = GI50 up to about 1.1 µM and inactive = higher.

Columns and labels:
Experiment in all cases: NCI anticancer screen, dose series, 48 h
[1] = tested on: SF-268
[2] = tested on: KM12
[3] = tested on: A549
[4] = tested on: UACC-257
[5] = tested on: EKVX
[6] = tested on: OVCAR-4
[7] = tested on: SNB-19
[8] = tested on: SK-MEL-28
[9] = tested on: SW-620
[10] = tested on: HT-29
[11] = tested on: U-251
[12] = tested on: HL-60
[13] = tested on: IGROV-1
[14] = tested on: MDA-MB-231
[15] = tested on: UACC-62
[16] = tested on: CAKI-1
[17] = tested on: M14
[18] = tested on: SNB-75
[19] = tested on: SF-539

Structure (SMILES)	GI50 [1]	GI50 [2]	GI50 [3]	GI50 [4]	GI50 [5]	GI50 [6]	GI50 [7]	GI50 [8]	GI50 [9]	GI50 [10]	GI50 [11]	GI50 [12]	GI50 [13]	GI50 [14]	GI50 [15]	GI50 [16]	GI50 [17]	GI50 [18]	GI50 [19]
CCCCCC(O)(CCCCC)CCCCCCCCC1=C(O)C(=O)c2ccccc2C1=O	6.95 µM (inactive)	5.62 µM (inactive)	9.64 µM (inactive)	12.6 µM (inactive)	10.7 µM (inactive)	9.79 µM (inactive)	5.75 µM (inactive)	11.7 µM (inactive)	7.46 µM (inactive)	14.1 µM (inactive)	7.73 µM (inactive)	3.51 µM (inactive)	6.08 µM (inactive)	11.4 µM (inactive)	8.17 µM (inactive)	12 µM (inactive)	10.8 µM (inactive)	28.1 µM (inactive)	11.2 µM (inactive)
O=C(/C=C/c1ccc(O)cc1)c1ccc(O)cc1 [4,4'-DIHYDROXYCHALCONE]	21.4 µM (inactive)	11.9 µM (inactive)	30.5 µM (inactive)	29.5 µM (inactive)	42.3 µM (inactive)	> 69.8 µM (inactive)	32.7 µM (inactive)	28.1 µM (inactive)	26.1 µM (inactive)	19.9 µM (inactive)	18 µM (inactive)	17 µM (inactive)	32.1 µM (inactive)	43.7 µM (inactive)	25.5 µM (inactive)	18.1 µM (inactive)	18.8 µM (inactive)	20.9 µM (inactive)	21.1 µM (inactive)
CCOC(=O)C(=CNc1ccc(NC2=NCC(C)S2)cc1)C(=O)OCC (stereo not given)	33.1 µM (inactive)	16.6 µM (inactive)	35.6 µM (inactive)	26.5 µM (inactive)	37.3 µM (inactive)	9.62 µM (inactive)	37.8 µM (inactive)	20.8 µM (inactive)	31 µM (inactive)	23.6 µM (inactive)	26.2 µM (inactive)	2.38 µM (inactive)	26.8 µM (inactive)	34.3 µM (inactive)	11 µM (inactive)	45.3 µM (inactive)	31.5 µM (inactive)	22.1 µM (inactive)	47.8 µM (inactive)
c1ccc(C2=NOC(c3ccccc3)N2C23CC4CC(CC(C4)C2)C3)cc1 (stereo not given)	> 10 µM (inactive)	> 10 µM (inactive)	> 10 µM (inactive)	9.73 µM (inactive)	> 10 µM (inactive)	> 10 µM (inactive)	> 10 µM (inactive)	> 10 µM (inactive)	> 10 µM (inactive)	> 10 µM (inactive)	> 10 µM (inactive)	> 10 µM (inactive)	> 10 µM (inactive)	> 10 µM (inactive)	> 10 µM (inactive)	> 10 µM (inactive)	> 10 µM (inactive)	5.19 µM (inactive)	> 10 µM (inactive)
Oc1ccc2ccccc2c1-c1nnc(CCCCCCCCc2nnc(-c3c(O)ccc4ccccc34)o2)o1	0.834 µM (active)	27.2 µM (inactive)	3.85 µM (inactive)	10.2 µM (inactive)	4.05 µM (inactive)	1.15 µM (inactive)	3.53 µM (inactive)	18.1 µM (inactive)	3.44 µM (inactive)	13.4 µM (inactive)	1.05 µM (active)	0.319 µM (active)	0.536 µM (active)	3.52 µM (inactive)	7.64 µM (inactive)	0.813 µM (active)	1.34 µM (inactive)	21.4 µM (inactive)	1.52 µM (inactive)
CN1CCN(CC(=O)N2c3ccccc3Sc3cc4ccccc4cc32)CC1	11.6 µM (inactive)	17 µM (inactive)	15.3 µM (inactive)	11.6 µM (inactive)	11.8 µM (inactive)	15.5 µM (inactive)	18.4 µM (inactive)	14.6 µM (inactive)	20.4 µM (inactive)	4.31 µM (inactive)	14.3 µM (inactive)	0.394 µM (active)	16.5 µM (inactive)	14.6 µM (inactive)	17.1 µM (inactive)	13.1 µM (inactive)	13.8 µM (inactive)	14.5 µM (inactive)	15.6 µM (inactive)
Cc1ccnc2[nH]c(-c3ccccc3)cc(=O)c12	0.0341 µM (active)	0.00705 µM (active)	0.0153 µM (active)	0.0113 µM (active)	0.3 µM (active)	68.7 µM (inactive)	0.0233 µM (active)	0.01 µM (active)	0.00421 µM (active)	0.00361 µM (active)	0.00552 µM (active)	0.00188 µM (active)	0.0726 µM (active)	0.0912 µM (active)	0.00535 µM (active)	0.0116 µM (active)	0.00658 µM (active)	0.00621 µM (active)	0.0191 µM (active)
CC(C)NCC(O)c1cc(OCc2ccccc2)c(OCc2ccccc2)cc1NC(=O)CCC(=O)O (stereo not given)	10.1 µM (inactive)	4.28 µM (inactive)	11.8 µM (inactive)	13.4 µM (inactive)	12.4 µM (inactive)	11.5 µM (inactive)	12.6 µM (inactive)	4.08 µM (inactive)	2.61 µM (inactive)	3.75 µM (inactive)	5.04 µM (inactive)	3.15 µM (inactive)	11.4 µM (inactive)	8.15 µM (inactive)	3.25 µM (inactive)	8.75 µM (inactive)	1.45 µM (inactive)	10.6 µM (inactive)	16.4 µM (inactive)
Cc1nc(Cl)c(Cl)c(Cl)n1	1.92 µM (inactive)	0.405 µM (active)	1.49 µM (inactive)	0.687 µM (active)	0.357 µM (active)	0.0331 µM (active)	1.39 µM (inactive)	0.311 µM (active)	0.0471 µM (active)	0.104 µM (active)	2.04 µM (inactive)	0.0269 µM (active)	0.173 µM (active)	0.276 µM (active)	0.375 µM (active)	< 0.01 µM (active)	0.119 µM (active)	1.18 µM (inactive)	1.44 µM (inactive)
C/C(=N\Nc1nc2ccccc2o1)c1ncccn1	0.32 µM (active)	0.817 µM (active)	0.0908 µM (active)	< 0.022 µM (active)	< 0.0172 µM (active)	< 0.01 µM (active)	0.163 µM (active)	0.0405 µM (active)	< 0.01 µM (active)	< 0.01 µM (active)	0.0213 µM (active)	< 0.01 µM (active)	0.0184 µM (active)	< 0.0208 µM (active)	0.0646 µM (active)	< 0.01 µM (active)	< 0.0192 µM (active)	1.85 µM (inactive)	0.043 µM (active)
O=C(O)/C=C/c1ccc(OS(=O)(=O)O)cc1	> 100 µM (inactive)	> 100 µM (inactive)	> 100 µM (inactive)	> 100 µM (inactive)	> 100 µM (inactive)	> 100 µM (inactive)	> 100 µM (inactive)	> 100 µM (inactive)	> 100 µM (inactive)	> 100 µM (inactive)	> 100 µM (inactive)	> 100 µM (inactive)	> 100 µM (inactive)	> 100 µM (inactive)	> 100 µM (inactive)	> 100 µM (inactive)	> 100 µM (inactive)	> 100 µM (inactive)	> 100 µM (inactive)
COc1nc(C#CC(C)(C)C)nc(OC)n1	26.2 µM (inactive)	18.2 µM (inactive)	25.4 µM (inactive)	48.3 µM (inactive)	36 µM (inactive)	16.4 µM (inactive)	> 100 µM (inactive)	37.2 µM (inactive)	25 µM (inactive)	40 µM (inactive)	39.2 µM (inactive)	25.8 µM (inactive)	39.4 µM (inactive)	20.9 µM (inactive)	14.8 µM (inactive)	22.3 µM (inactive)	36.6 µM (inactive)	33.6 µM (inactive)	28.8 µM (inactive)
C=C(C)COc1cc(/N=C(/S)OC(C)C)ccc1Cl	19.5 µM (inactive)	20.2 µM (inactive)	12.7 µM (inactive)	17.3 µM (inactive)	11.8 µM (inactive)	14.5 µM (inactive)	18.8 µM (inactive)	17.3 µM (inactive)	13.7 µM (inactive)	14.4 µM (inactive)	16.9 µM (inactive)	15.6 µM (inactive)	16.6 µM (inactive)	15.4 µM (inactive)	17.3 µM (inactive)	15.3 µM (inactive)	17.2 µM (inactive)	15.2 µM (inactive)	16.1 µM (inactive)
C1=N\c2ccc(cc2)-c2ccc(cc2)/N=C\c2ccc(cc2)OCc2cccc(n2)COc2ccc/1cc2	16.1 µM (inactive)	> 100 µM (inactive)	> 100 µM (inactive)	> 100 µM (inactive)	45.8 µM (inactive)	> 100 µM (inactive)	38.9 µM (inactive)	> 100 µM (inactive)	> 100 µM (inactive)	> 100 µM (inactive)	45.5 µM (inactive)	> 100 µM (inactive)	> 100 µM (inactive)	> 100 µM (inactive)	> 100 µM (inactive)	> 100 µM (inactive)	> 100 µM (inactive)	64.7 µM (inactive)	> 100 µM (inactive)
COc1ccc(Cn2c3c(cc(OS(=O)(=O)C(F)(F)F)c2=O)Cc2ccccc2-3)cc1	12.8 µM (inactive)	26.4 µM (inactive)	16.5 µM (inactive)	11.9 µM (inactive)	20.4 µM (inactive)	19.3 µM (inactive)	19.1 µM (inactive)	18.7 µM (inactive)	10.3 µM (inactive)	> 50 µM (inactive)	19.2 µM (inactive)	10.7 µM (inactive)	22.5 µM (inactive)	> 50 µM (inactive)	10.5 µM (inactive)	20.9 µM (inactive)	6.65 µM (inactive)	> 50 µM (inactive)	10.3 µM (inactive)
